The IC50 is the concentration at which inhibition is half-maximal. Lower therefore signals inhibition by little substance. For orientation: inhibition means the share of the control response that was lost under treatment.

One assay concerns the target T1, C-C chemokine receptor type 5 (Homo sapiens, UniProt P51681). Nature of the assay: Binding affinity towards human CCR5 receptor in Chinese hamster ovary (CHO) cells using [125I]-MIP-1 alpha as radioligand. It counts as cell-based.
Target sequence in this assay (P51681 whole entry): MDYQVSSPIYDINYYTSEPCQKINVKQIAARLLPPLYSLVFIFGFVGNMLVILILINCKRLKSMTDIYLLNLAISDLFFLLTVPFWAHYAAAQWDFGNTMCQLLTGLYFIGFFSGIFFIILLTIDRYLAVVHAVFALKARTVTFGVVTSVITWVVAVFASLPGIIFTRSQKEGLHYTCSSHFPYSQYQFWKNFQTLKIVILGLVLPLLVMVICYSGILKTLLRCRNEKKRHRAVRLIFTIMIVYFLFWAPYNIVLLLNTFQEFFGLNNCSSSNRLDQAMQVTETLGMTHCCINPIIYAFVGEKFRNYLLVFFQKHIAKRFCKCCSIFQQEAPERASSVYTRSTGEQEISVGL
Compound `CCCCCCCCS(=O)(=O)N(C)C[C@@H](CCN1CCC2(CC1)C[S+]([O-])c1ccccc12)c1ccc(Cl)c(Cl)c1` (stereo partly drawn) displayed an IC50 of 1400 nM.

In the case of `CN(C[C@@H](CCN1CCC2(CC1)C[S+]([O-])c1ccccc12)c1ccc(Cl)c(Cl)c1)C(=O)Oc1ccccc1` (stereo partly drawn), the half-inhibitory concentration (IC50) was determined as 780 nM.

Turning to `CN(Cc1ccccc1)C[C@@H](CCN1CCC2(CC1)CS(=O)(=O)c1ccccc12)c1ccc(Cl)c(Cl)c1`, the IC50 came out at 1000 nM.

With `CN(C[C@@H](CCN1CCC2(CC1)CS(=O)(=O)c1ccccc12)c1ccc(Cl)c(Cl)c1)S(=O)(=O)c1cccc([N+](=O)[O-])c1`, the concentration for half-maximal inhibition (IC50) came to 150 nM.

`CN(C[C@@H](CCN1CCC2(CC1)CS(=O)(=O)c1ccccc12)c1ccc(Cl)c(Cl)c1)S(=O)(=O)c1cccs1` displayed a half-inhibitory concentration (IC50) of 120 nM.

As for `CN(C[C@@H](CCN1CCC2(CC1)C[S+]([O-])c1ccccc12)c1ccc(Cl)c(Cl)c1)S(=O)(=O)c1cn(C)cn1` (stereo partly drawn), the concentration for half-maximal inhibition (IC50) stood at 340 nM.

Regarding `CN(C[C@@H](CCN1CCC2(CC1)C[S+]([O-])c1ccccc12)c1ccc(Cl)c(Cl)c1)S(=O)(=O)c1ccc2ccccc2c1` (stereo partly drawn), the 50% inhibitory concentration (IC50) worked out at 60 nM.

On to `CN(C[C@@H](CCN1CCC2(CC1)C[S+]([O-])c1ccccc12)c1ccc(Cl)c(Cl)c1)S(C)(=O)=O` (stereo partly drawn), for which the IC50 was 850 nM. This IC50 is about 14-fold higher than that of the compound before.

The compound `CN(C[C@@H](CCN1CCC2(CC1)C[S+]([O-])c1ccccc12)c1ccc(Cl)c(Cl)c1)S(=O)(=O)c1ccccc1` (stereo partly drawn) came in with a half-inhibitory concentration (IC50) of 35 nM.

In the case of `CN(C[C@@H](CCN1CCC2(CC1)C[S+]([O-])c1ccccc12)c1ccc(Cl)c(Cl)c1)S(=O)(=O)c1cccc2ccccc12` (stereo partly drawn), the IC50 is 360 nM.

For `CCN(C[C@@H](CCN1CCC2(CC1)C[S+]([O-])c1ccccc12)c1ccc(Cl)c(Cl)c1)S(=O)(=O)c1ccccc1` (stereo partly drawn), the half-maximal inhibitory concentration (IC50) turned out to be 130 nM. This IC50 lies about 2.8-fold lower than the previous one.

Compound `CN(C[C@@H](CCN1CCC2(CC1)C[S+]([O-])c1ccccc12)c1ccc(Cl)c(Cl)c1)S(=O)(=O)c1cccs1` (stereo partly drawn) came in with an IC50 of 60 nM. This IC50 lies about 2.2-fold lower than the previous one.

On to `CN(C[C@@H](CCN1CCC2(CC1)CS(=O)(=O)c1ccccc12)c1ccc(Cl)c(Cl)c1)S(=O)(=O)c1ccc([N+](=O)[O-])cc1`, for which the half-inhibitory concentration (IC50) was 60 nM.

In turn, `CN(C[C@@H](CCN1CCC2(CC1)C[S+]([O-])c1ccccc12)c1ccc(Cl)c(Cl)c1)S(=O)(=O)C1CCCC1` (stereo partly drawn) returned an IC50 of 100 nM.

In turn, `CN(C[C@@H](CCN1CCC2(CC1)C[S+]([O-])c1ccccc12)c1ccc(Cl)c(Cl)c1)S(=O)(=O)c1ccc(Cl)cc1` (stereo partly drawn) had a half-maximal inhibitory concentration (IC50) of 40 nM.

`CN(C[C@@H](CCN1CCC2(CC1)C[S+]([O-])c1ccccc12)c1ccc(Cl)c(Cl)c1)S(=O)(=O)c1ccc2[nH]ccc2c1` (stereo partly drawn) showed a 50% inhibitory concentration (IC50) of 70 nM. Compared with the last compound, the IC50 is about 1.8-fold higher.

Turning to `O=S(=O)(NC[C@@H](CCN1CCC2(CC1)C[S+]([O-])c1ccccc12)c1ccc(Cl)c(Cl)c1)c1ccccc1` (stereo partly drawn), the IC50 stood at 230 nM.

`CN(C[C@@H](CCN1CCC2(CC1)C[S+]([O-])c1ccccc12)c1ccc(Cl)c(Cl)c1)S(=O)(=O)Cc1ccccc1` (stereo partly drawn) had an IC50 of 590 nM.

In turn, `CN(C[C@@H](CCN1CCC2(CC1)CSc1ccccc12)c1ccc(Cl)c(Cl)c1)S(=O)(=O)c1ccccc1` showed an IC50 of 1000 nM.

`CN(C[C@@H](CCN1CCC2(CC1)C[S+]([O-])c1ccccc12)c1ccc(Cl)c(Cl)c1)S(=O)(=O)c1cccc2cccnc12` (stereo partly drawn) yielded an IC50 of 90 nM.

`CN(C[C@@H](CCN1CCC2(CC1)CS(=O)(=O)c1ccccc12)c1ccc(Cl)c(Cl)c1)S(=O)(=O)c1ccccc1` had an IC50 of 100 nM.

`CN(C[C@@H](CCN1CCC2(CC1)C[S+]([O-])c1ccccc12)c1ccc(Cl)c(Cl)c1)S(=O)(=O)c1cccc(Cl)c1` (stereo partly drawn): the concentration for half-maximal inhibition (IC50) was 70 nM. This IC50 and that of the compound before are within 1.5-fold of each other.

On to `CN(C[C@@H](CCN1CCC2(CC1)C[S+]([O-])c1ccccc12)c1ccc(Cl)c(Cl)c1)S(=O)(=O)C1CCCCC1` (stereo partly drawn), for which the concentration for half-maximal inhibition (IC50) was determined as 100 nM.

As to `CN(C[C@@H](CCN1CCC2(CC1)C[S+]([O-])c1ccccc12)c1ccc(Cl)c(Cl)c1)S(=O)(=O)c1cccnc1` (stereo partly drawn), the IC50 worked out at 100 nM.

`CCN(C[C@@H](CCN1CCC2(CC1)CSc1ccccc12)c1ccc(Cl)c(Cl)c1)S(=O)(=O)c1ccccc1` came in with an IC50 of 10000 nM. Against the preceding compound, the IC50 is about 100-fold higher.

Compound `CN(C[C@@H](CCN1CCC2(CC1)C[S+]([O-])c1ccccc12)c1ccc(Cl)c(Cl)c1)C(=O)Cc1ccccc1` (stereo partly drawn) had a concentration for half-maximal inhibition (IC50) of 640 nM.

The compound `CCN(C[C@@H](CCN1CCC2(CC1)CS(=O)(=O)c1ccccc12)c1ccc(Cl)c(Cl)c1)S(=O)(=O)c1ccccc1` had a half-maximal inhibitory concentration (IC50) of 160 nM. This IC50 is about 4-fold lower than that of the compound before.

In the case of `CN(C[C@@H](CCN1CCC2(CC1)C[S+]([O-])c1ccccc12)c1ccc(Cl)c(Cl)c1)S(=O)(=O)c1ccccc1Cl` (stereo partly drawn), the IC50 was found to be 80 nM.

As for `COc1ccc(S(=O)(=O)N(C)C[C@@H](CCN2CCC3(CC2)C[S+]([O-])c2ccccc23)c2ccc(Cl)c(Cl)c2)cc1` (stereo partly drawn), the IC50 amounted to 40 nM.

Compound `CN(C[C@@H](CCN1CCC2(CC1)C[S+]([O-])c1ccccc12)c1ccc(Cl)c(Cl)c1)S(=O)(=O)c1ccc(-c2ccccc2)cc1` (stereo partly drawn) gave a half-maximal inhibitory concentration (IC50) of 40 nM.

Turning to `O=S(=O)(NC[C@@H](CCN1CCC2(CC1)CSc1ccccc12)c1ccc(Cl)c(Cl)c1)c1ccccc1`, the half-inhibitory concentration (IC50) was determined as 1600 nM.

Compound `CN(C)S(=O)(=O)N(C)C[C@@H](CCN1CCC2(CC1)C[S+]([O-])c1ccccc12)c1ccc(Cl)c(Cl)c1` (stereo partly drawn) gave a half-maximal inhibitory concentration (IC50) of 340 nM.

In the case of `CN(C[C@@H](CCN1CCC2(CC1)C[S+]([O-])c1ccccc12)c1ccc(Cl)c(Cl)c1)S(=O)(=O)c1cnc2ccccc2c1` (stereo partly drawn), the IC50 was 120 nM.

The next assay concerns the target T1, C-C chemokine receptor type 5. Nature of the assay: (§1) Binding affinity towards human CCR5 receptor in Chinese hamster ovary (CHO) cells using [125I]-MIP-1 alpha as radioligand at a concentration of 4000 nM. It counts as cell-based.
Target sequence in this assay (P51681 whole entry): as above
On to `CN(C[C@@H](CCN1CCC2(CC1)C[S+]([O-])c1ccccc12)c1ccc(Cl)c(Cl)c1)S(=O)(=O)c1ccsc1` (stereo partly drawn), for which the IC50 was > 4000 nM.

The target is the same in another assay. Nature of the assay: Binding affinity towards human CCR5 receptor in Chinese hamster ovary (CHO) cells using [125I]-MIP-1 alpha as radioligand at a concentration of 1000 nM. It counts as cell-based.
Target sequence in this assay (P51681 whole entry, looked up): as the sequence (P51681 whole entry) above
For `CN(C[C@@H](CCN1CCC2(CC1)C[S+]([O-])c1ccccc12)c1ccc(Cl)c(Cl)c1)C(=O)OC(C)(C)C` (stereo partly drawn), the inhibition was determined as 35%.

Regarding `CN(Cc1ccccc1)C[C@@H](CCN1CCC2(CC1)C[S+]([O-])c1ccccc12)c1ccc(Cl)c(Cl)c1` (stereo partly drawn), the inhibition is 40%.

A further assay has the same target. The assay can be described thus: Binding affinity towards human CCR5 receptor in Chinese hamster ovary (CHO) cells using [125I]-MIP-1 alpha as radioligand at a concentration of 10000 nM. Type of assay: cell-based.
Target sequence in this assay (P51681 whole entry, looked up): as the sequence (P51681 whole entry) above
`CN(C[C@@H](CCN1CCC2(CC1)C[S+]([O-])c1ccccc12)c1ccc(Cl)c(Cl)c1)C(=O)N(C)c1ccccc1` (stereo partly drawn) displayed an inhibition of 73%.

For `CN(C[C@@H](CCN1CCC2(CC1)C[S+]([O-])c1ccccc12)c1ccc(Cl)c(Cl)c1)C(=O)Nc1ccccc1` (stereo partly drawn), the inhibition was 69%.

Another assay shares this target. Described as §1. Type of assay: cell-based.
Target sequence in this assay (P51681 whole entry, looked up): as the sequence (P51681 whole entry) above
In the case of `CN(C[C@@H](CCN1CCC2(CC1)CSc1ccccc12)c1ccc(Cl)c(Cl)c1)C(=O)c1ccccc1`, the inhibition was 0%.

In turn, `CNC[C@@H](CCN1CCC2(CC1)C[S+]([O-])c1ccccc12)c1ccc(Cl)c(Cl)c1` (stereo partly drawn) showed an inhibition of 0%.

Turning to `CN(C[C@@H](CCN1CCC2(CC1)C[S+]([O-])c1ccccc12)c1ccc(Cl)c(Cl)c1)S(=O)(=O)c1ccsc1` (stereo partly drawn), the inhibition turned out to be 20%.

`CN(C[C@@H](CCN1CCC2(CC1)CS(=O)(=O)c1ccccc12)c1ccc(Cl)c(Cl)c1)C(=O)c1ccccc1` gave an inhibition of 2%.

The compound `CN(C[C@@H](CCN1CCC2(CC1)C[S+]([O-])c1ccccc12)c1ccc(Cl)c(Cl)c1)C(=O)c1ccccc1` (stereo partly drawn) gave an inhibition of 22%.

These data come from ChEMBL document CHEMBL1133795, “Antagonists of the human CCR5 receptor as anti-HIV-1 agents. part 1: discovery and initial structure-activity relationships for 1 -amino-2-phenyl-4-(piperidin-1-yl)butanes” (Bioorg Med Chem Lett, 2001).
